Laboratory results: patent US9845330B2, “6-nitro-2,3-dihydroimidazo[2,1-b]oxazoles and a process for the preparation thereof” (priority 2013, dated 2017)
In brackets after ≈: the same amount, converted by molar mass. Read-outs that look alike come from different tables or passages of the source.

Experiments:
M. tuberculosis H37Rv = experiment: Combination studies, checkerboard method; type: cell-based, Mycobacterium tuberculosis; conditions: for MIC alone / MIC with IA25 / MIC with IIA3 / MIC with Ethambutol / MIC with INH / MIC with Rifampicin: checkerboard; for MIC with IA25: in combination with IA25; for MIC with IIA3: in combination with IIA3; for MIC with Ethambutol: in combination with Ethambutol; for MIC with INH: in combination with INH; for MIC with Rifampicin: in combination with Rifampicin
Protocol: The efficacy of compounds IA25 and IIA3 (conc range 4 μg/ml to 0.007 μg/ml) in combination with currently used anti-TB drugs such as rifampicin, isoniazid and ethambutol (each drug tested at conc range 4 μg/ml to […]), wherein the ratio of drugs was ranging between 0.1% to 50%, was determined in vitro using checkerboard method. The checkerboard procedure was performed based on the MIC values by the broth microdilution method. The checkerboard method was performed in 96 well U bottom microtitre plates. 100 microliters of 4× concentration of drug was added to first column of the plate. 50 microliters from first column was transferred to second column and was serially diluted in horizontal manner upto column 10 of the plate. Seven dilutions of 4× concentration of compound were prepared in eppendorfs and fifty microliters of each concentration was added vertically starting from eleventh column of row eight to row second of the plate. First row of the plate served as drug control. 100 microliters of 1:10 diluted of 1 Mc Farland inoculum was added to each well of the plate. Plates were then incubated at 37° C. for 14 days. MIC of drug alone and in presence of compound and vice versa was observed visually. […] The FIC index value for each concentration of two-drug combination was calculated and the minimum value was adopted.

[1] = tested on: M. tuberculosis H37Rv (ATCC 27294); experiment: MIC by broth dilution method, M. tuberculosis H37Rv; type: cell-based; conditions: Mycobacterium tuberculosis
[2] = Cytotoxicity assay (MTT) in macrophage J774 cells; type: cell-based; conditions: mouse, J774 macrophage cells; also called safety index
Method in brief: (§1)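 J774 cells seeded at 3×10^4 cells/cm^2 in RPMI with FCS reduced to 5%, then exposed to compounds at 40 μg/ml for 24 hrs. MTT reduction read at 450 nm; percentage cytotoxicity calculated relative to untreated cells.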

[3] = tested on: macrophage J774 cells line; experiment: Cytotoxicity assay (MTT) in macrophage J774 cells; type: cell-based; conditions: J774 cells, 24 hrs, MTT
Method in brief: as §1

[4] = In vivo pharmacokinetics, oral, mice; set-up: species or system Balb/c mice; Ka: unit not given here; conditions: 5 mg/kg oral, plasma
Protocol: Compounds were administered orally to mice (Balb/c mice) at a dose of 5 mg/kg as a suspension in 0.5% CMC and Tween 80. Samples were derived from plasma at different time points i.e. 0.16 h, 0.5 h, 1 h, 2 h, 4 h, 6 h, 8 h and 24 h, which were then analysed by LC-MS/MS to generate the required pharmacokinetic parameters.

[5] = FIC A, drug in combination with IA25
[6] = FIC A, drug in combination with IIA3
[7] = 504 h, broth dilution, 3 weeks, read-out: MIC M. tb H37Rv
[8] = FIC B, compound in combination with Ethambutol
[9] = FIC B, compound in combination with INH
[10] = FIC B, compound in combination with Rifampicin
[11] = 504 h, read-out: MIC M. tb H37Rv, broth dilution, 3 weeks
[12] = read-out: MIC value, text summary: sensitive H37Rv as well as MDR and XDR strains of M. tuberculosis

SMILES | MIC alone (M. tuberculosis H37Rv) | MIC [1, 7] | selectivity ratio at 24 h, 40 μg/ml [2] | Cytotoxicity [3] | CLB [4] | Ka [4] | Vdarea [4] | t1/2absorption [4] | Cmax ([4]; Balb/c, mouse, po, 5 mg/kg) | AUC ([4]; Balb/c, mouse) | Tmax ([4]; Balb/c, mouse, read-out: Tmax) | MIC [1, 12] | other results
CC[C@@H](CO)NCCN[C@@H](CC)CO [Ethambutol, reference compound] | 1 µg/mL | – | – | – | – | – | – | – | – | – | – | – | FIC (MIC combination/MIC alone) (M. tuberculosis H37Rv; [5]): FIC A = 0.25; FIC (MIC combination/MIC alone) (M. tuberculosis H37Rv; [6]): FIC A = 0.5; MIC with IA25 (M. tuberculosis H37Rv): 0.25 µg/mL; MIC with IIA3 (M. tuberculosis H37Rv): 0.5 µg/mL
C[C@]1(COc2ccc(-n3cc(COc4ccc(OC(F)(F)F)cc4)nn3)cc2)Cn2cc([N+](=O)[O-])nc2O1 [IA25] | 0.12 µg/mL | 0.12 µg/mL (≈ 0.225 µM) | > 10 | >40 µg/mL | 0.12 mL/min/kg | 1.71 | 0.36 L/kg | 0.41 h | 1020 nM | 14 µM·h | 2 h | – | Cmax [4]: 1020 nM; FIC (MIC combination/MIC alone) (M. tuberculosis H37Rv; [8]): FIC B = 0.5; FIC (MIC combination/MIC alone) (M. tuberculosis H37Rv; [9]): FIC B = 0.25; FIC (MIC combination/MIC alone) (M. tuberculosis H37Rv; [10]): FIC B = 0.5; MIC with Ethambutol (M. tuberculosis H37Rv): 0.06 µg/mL; MIC with INH (M. tuberculosis H37Rv): 0.03 µg/mL; MIC with Rifampicin (M. tuberculosis H37Rv): 0.06 µg/mL; FIC Index (FIC A + FIC B) (M. tuberculosis H37Rv; combination with Ethambutol): 0.75; FIC Index (FIC A + FIC B) (M. tuberculosis H37Rv; combination with INH): 0.5; Observations (M. tuberculosis H37Rv; combination with INH (isoniazid)): synergistic effect; FIC Index (FIC A + FIC B) (M. tuberculosis H37Rv; combination with Rifampicin): 0.75
C[C@]1(COc2cccc(-n3cc(COc4ccc(OC(F)(F)F)cc4)nn3)c2)Cn2cc([N+](=O)[O-])nc2O1 [IA33] | – | 0.12 µg/mL (≈ 0.225 µM) | > 10 | >40 µg/mL | 1.2 mL/min/kg | 0.478 | 0.25 L/kg | 1.448 h | 595 nM | 3.95 µM·h | 2 h | – | –
C[C@]1(COc2ccc(-c3cc(COc4ccc(OC(F)(F)F)cc4)on3)cc2)Cn2cc([N+](=O)[O-])nc2O1 [IC13, (R)-2-{4-[5-(4-trifluoromethoxyphenoxymethyl)isoxazol-3-yl]phenoxymethyl}-2,3-dihydro-2-methyl-6-nitroimidazo[2,1-b]oxazole] | – | – | > 10 | >40 µg/mL | 0.055 mL/min/kg | 1.21 | 0.13 L/kg | 0.57 h | 2530 nM | 33.7 µM·h | 2 h | < 1 µg/mL | MIC [1, 11]: 0.12 µg/mL (≈ 0.225 µM)
C[C@]1(COc2ccc(-c3cc(COc4ccc(F)cc4)on3)cc2)Cn2cc([N+](=O)[O-])nc2O1 [IC14, (R)-2-{4-[5-(4-fluorophenoxymethyl)isoxazol-3-yl]phenoxymethyl}-2,3-dihydro-2-methyl-6-nitroimidazo[2,1-b]oxazole] | – | – | > 10 | >40 µg/mL | 3.37 mL/min/kg | 1.056 | 1.54 L/kg | 0.656 h | 353 nM | 1.55 µM·h | 2 h | < 1 µg/mL | MIC [1, 11]: 0.06 µg/mL (≈ 0.129 µM)
C[C@]1(COc2ccc(NC(=O)Nc3ccc(C(F)(F)F)cc3)cc2)Cn2cc([N+](=O)[O-])nc2O1 [IIA3, (R)-1-(4-trifluoromethylphenyl)-3-{4-(2-methyl-6-nitro-2,3-dihydroimidazo[2,1-b]oxazol-2-yl)methoxyphenyl}urea] | 0.5 µg/mL | 0.12 µg/mL (≈ 0.251 µM) | > 10 | >40 µg/mL | – | – | – | – | – | – | – | < 1 µg/mL | FIC (MIC combination/MIC alone) (M. tuberculosis H37Rv; [8]): FIC B = 0.25; FIC (MIC combination/MIC alone) (M. tuberculosis H37Rv; [9]): FIC B = 0.25; FIC (MIC combination/MIC alone) (M. tuberculosis H37Rv; [10]): FIC B = 0.25; MIC with Ethambutol (M. tuberculosis H37Rv): 0.12 µg/mL; MIC with INH (M. tuberculosis H37Rv): 0.12 µg/mL; MIC with Rifampicin (M. tuberculosis H37Rv): 0.12 µg/mL; FIC Index (FIC A + FIC B) (M. tuberculosis H37Rv; combination with Ethambutol): 0.75; FIC Index (FIC A + FIC B) (M. tuberculosis H37Rv; combination with INH): 0.75; FIC Index (FIC A + FIC B) (M. tuberculosis H37Rv; combination with Rifampicin): 0.5; Observations (M. tuberculosis H37Rv; combination with Rifampicin): synergistic effect
C[C@]1(COc2ccc(S(=O)(=O)N3CCCC3)cc2)Cn2cc([N+](=O)[O-])nc2O1 [IIC9, (R)-2-{4-(pyrrolidin-1-ylsulfonyl)phenoxymethyl}-2,3-dihydro-2-methyl-6-nitroimidazo[2,1-b]oxazole] | – | 1 µg/mL (≈ 2.45 µM) | > 10 | >40 µg/mL | – | – | – | – | – | – | – | – | –
C[C@]1(COc2ccc(S(=O)(=O)N3CCOCC3)cc2)Cn2cc([N+](=O)[O-])nc2O1 [IIC10, (R)-2-{4-(morpholinsulfonyl)phenoxymethyl}-2,3-dihydro-2-methyl-6-nitroimidazo[2,1-b]oxazole] | – | 0.5 µg/mL (≈ 1.18 µM) | > 10 | >40 µg/mL | – | – | – | – | – | – | – | 0.5 µg/mL (≈ 1.18 µM) | –
NNC(=O)c1ccncc1 [INH, isoniazid, reference compound] | 0.25 µg/mL | – | – | – | – | – | – | – | – | – | – | – | FIC (MIC combination/MIC alone) (M. tuberculosis H37Rv; [5]): FIC A = 0.25; FIC (MIC combination/MIC alone) (M. tuberculosis H37Rv; [6]): FIC A = 0.5; MIC with IA25 (M. tuberculosis H37Rv): 0.06 µg/mL; MIC with IIA3 (M. tuberculosis H37Rv): 0.12 µg/mL
C[C@]1(COc2ccc(N3CCC(Oc4ccc(OC(F)(F)F)cc4)CC3)cc2)Cn2cc([N+](=O)[O-])nc2O1 [OPC-67683, reference compound] | – | – | – | – | 0.0717 mL/min/kg | – | 0.76 L/kg | 0.64 h | – | 9.32 µM·h | – | – | Cmax [4]: 668 nM; Tmax [4]: 2.00 h
CO[C@H]1/C=C/O[C@@]2(C)Oc3c(C)c(O)c4c(O)c(c(/C=N/N5CCN(C)CC5)c(O)c4c3C2=O)NC(=O)/C(C)=C\C=C\[C@H](C)[C@H](O)[C@@H](C)[C@@H](O)[C@@H](C)[C@H](OC(C)=O)[C@@H]1C [Rifampicin, reference compound] | 0.12 µg/mL | – | – | – | – | – | – | – | – | – | – | – | FIC (MIC combination/MIC alone) (M. tuberculosis H37Rv; [5]): FIC A = 0.25; FIC (MIC combination/MIC alone) (M. tuberculosis H37Rv; [6]): FIC A = 0.25; MIC with IA25 (M. tuberculosis H37Rv): 0.03 µg/mL; MIC with IIA3 (M. tuberculosis H37Rv): 0.06 µg/mL
